In patent publication US20080279795A1, “Tertiary Amine Functional Complex Polyester Polymers And Methods Of Production And Use” (priority 2003, published 2008):

How the values were obtained:
[1] = Rubine Dye test for substantivity on hair (chromameter); conditions: Example 3, second matrix of prototypes
Excerpt: The substrate (i.e., surface to which they are applied) in cosmetic applications is either the hair or the skin. […] Cationic conditioning agents act by binding a moiety, typically a long chain alkyl group, to the hair or skin by electrostatic attraction (ionic bonding), but also, weaker forces such as dipole-dipole interactions, and furthermore van der Waals forces can assist in substrate binding. Substantivity is a term used to describe how well a conditioning agent binds to the surface of the substrate. Substantivity of hair conditioning agents is often determined by performing the Rubine Dye test. The Rubine Dye test is designed to show how much of the conditioning ingredient adheres to the hair. Results from the Rubine Dye test are normally evaluated by comparison to some known standard or benchmark.
The polyesteramine prototypes were tested internally for substantivity using the Rubine Dye test protocol. In the Rubine Dye test, the prototypes were benchmarked against Dehyquart® L-80 (dicocoylethyl hydroxyethylmonium methosulfate (and) propylene glycol), a commercial ester quaternary. The materials and equipment used in performing the Rubine Dye analysis were:
The protocol used to perform the Rubine Dye analysis on polyesteramine prototypes and Dehyquart® L-80 and the compositions of ingredients used is described below.
First, a stock dye solution was prepared using the following formula and preparation procedure: […]
In a small vessel, deionized water, Lumicrease Bordeaux 3LR Powder, and glacial acetic acid were agitated at about 20 to about 25° C. until a solution was obtained. […]
From about 0.95 to about 1.05 grams of hair was weighed out and glued onto pre-cut plastic sheets (1.5″×1.5″) using a hot glue gun to attach the swatches to the sheets. […] Quantitative comparisons of dye up-take and relative substantivity of each polymer were performed using a Minolta chromameter. Additionally, dye up-take was evaluated qualitatively by taking photographs of the hair swatches using a digital camera. […]

[2] = test system: EpiOccular® model made of human-derived epidermal keratinocytes cultured to make them similar to human corneal tissue; format: cell-based
Method: Irritancy to the eyes and to the skin was tested in-vitro using the EpiDerm® and EpiOccular® test models. EpiDerm® is a human test model of skin made up of normal epidermal keratinocytes. The EpiOccular® model is made of human-derived epidermal keratinocytes cultured to make them similar to human corneal tissue. In each of the tests, tissue samples are treated with the test article for various exposure times. Following treatment, the viability of the tissue is determined using MTT uptake and conversion, and the absorbance of the sample is measured at 540 nanometers (nm) wavelength using a reference wavelength of 690 nm. The viability is expressed as a percentage of control values. The mean percentage viability for each time point is used to calculate the ET50, which represents the time at which the tissue viability is reduced 50% compared to control tissue. […] Typically, higher molecular weight results in lower eye and skin irritancy.

SMILES	a-scale value ([1]; higher a = more deposition)	L-scale value ([1]; lower L = more deposition)	b-scale value ([1]; lower b = more deposition)	EpiOcular ® ET50 ([2]; exposure times 16, 64 and […], time at which tissue viability is reduced 50% vs control) [min]	irritancy classification, eyes ([2]; from EpiOcular ET50)
CCCCCCCCCCCCCCCCCC(=O)NCCCN(C)C [Lexamine ® S-13, stearamidopropyldimethylamine]	19.16	65.15	8.57	–	–
CCCCCCCCCCCCCCCC[N+](C)(C)C.[Cl-] [cetrimonium chloride]	–	–	–	116.9	more irritating
